The text below walks through data of patent publication US20090149417A1, “Methods and compositions for the treatment of cancer using benzopyrone-type PARP inhibitors” (priority 2007, published 2009).

One data set relates to MDA-MB-231. As to the kind of experiment: BrdU chemiluminescent cell proliferation assay. Type of data set: cell-based, human. The following applies: for IC50: Homo sapiens, MDA-MB-231, 72 h, 72 hour treatment. The procedure:
(§1) Test Agents—Cells are treated 24 hours after plating (Day 1) with vehicle or test agents at concentrations of 0.1 μM, 0.3 μM, 1 μM, 3 μM, 10 μM, 30 μM and 100 μM.
(§2) Tumor Cell Lines—Tumor cell lines (Table 1) are obtained from the American Type Cell Collection (ATCC, Rockville, Md.) or NCI-DCTD Tumor Repository (Bethesda, Md.) and maintained in proper growth media supplemented with 10% fetal bovine serum (FBS, NovaTech), and are maintained in specified growth media. Cells are propagated at 37° C. in a humidified atmosphere containing 5% carbon dioxide.
(§3) Cell proliferation assay—Cell proliferation is determined using BrdU chemiluminescent assay, which measures incorporation of 5-bromo-2′-deoxyuridine (BrdU) into the genomic DNA of proliferating cells. Briefly, cells are added with BrdU for 4 hours, during which time it incorporates into the DNA of dividing cells in place of thymidine. Following labeling, cells are fixed and DNA denatured in one step by adding a FixDenat® denaturizing solution. After removing FixDenat, an anti-BrdU-peroxidase conjugated antibody is added, which binds to BrdU incorporated into newly-synthesized cellular DNA. Following antibody incubation, cells are washed 3 times with PBS and subjected to luminescent analysis. The reaction product is quantified by measuring light emission using a scanning multi-well luminometer (luminescence ELISA reader.)
(§4) Experimental Design—Tumor cells (Table 1) are grown to 70% confluency, trypsinized, counted and seeded in 96 well flat-bottom plates at final concentrations of 7.5×103-3×10^4 cells/well (Day 0); treatment with IIIg begins on Day 1 and continues for 68 hours (Table 2). Doses for both compounds range between […] and 100 μM. At the 68 hour time point, viable cell number is measured by BrdU assay as described above. Experiments are repeated at least twice at the same doses to determine inhibition of cell proliferation. Results from these studies are used to calculate an IC50 value (drug concentration that results in half-maximal response) for IIIg in each line.
(§5) For single studies, data from each experiment is collected and expressed as % Inhibition of Cell Proliferation (% ICP) using the following calculation.
(§6) % ICP=100%×[(1−(RLUtest/RLUvehicle)]
(§7) Where RLUtest is the relative light unit of the tested sample, and RLUvehicle is the relative light unit of the vehicle in which the drug is dissolved. An IC50 value is calculated from % ICP (PRISM® GraphPad software) using the formula:
(§8) y=min+(max−min)/(1+10^(Log(IC50)−x)×Hillslope)
(§9) Where (x) is the logarithm of agonist concentration, (y) is the response, and (min) and (max) are the variable lower and upper plateaus, respectively. The variable Hillslope characterizes the slope of the curve at its midpoint. The IC50 is the drug concentration for y halfway between min and max.

In another data set the test system is NIH: OVCAR-3. Put plainly: BrdU chemiluminescent cell proliferation assay. Type of data set: cell-based, human. Particulars: for IC50: Homo sapiens, OVCAR-3, 72 h, 72 hour treatment. The procedure:
as §1, §2, §3, §4, §5, §6, §7, §8, §9

A further data set has as its system PC-3. Put plainly: BrdU chemiluminescent cell proliferation assay. Type of data set: cell-based, human. The following applies: for IC50: Homo sapiens, PC-3, 72 h, 72 hour treatment. The procedure: as §1, §2, §3, §4, §5, §6, §7, §8, §9
Another data set concerns malignant cancer cells. Particulars: malignant versus nonmalignant cells; Kirsten E, Kun E, Int J Mol Med 2000; cited from earlier work.
A further data set has as its system COLO357FG and MiaPaCa-2. Put plainly: Combination with oxaliplatin, BrdU proliferation, Chou and Talalay's method. The following applies: combination of IIIg with oxaliplatin. Type of data set: cell-based, human. The protocol: This example provides the assessment of IIIg in combination with an anti-tumor agent, oxaliplatin, on the proliferation of two human pancreatic tumor cell lines, COLO357FG and MiaPaCa-2, in vitro. Cell proliferation is measured by BrdU incorporation as described in detail hereinabove. The experiments are performed according to Chou and Talalay's method (Chou T C, Talalay P. Quantitative analysis of dose-effect relationships: the combined effects of multiple drugs or enzyme inhibitors. Adv Enzyme Regul 1984, 22: 27-55).

Setting [1] is: mean of Exp1 and Exp2, read-out: Mean IC50.

Molecules are shown by their SMILES. Like-named read-outs stand apart in the source and are kept apart here.

For `O=c1ccc2c(I)c([N+](=O)[O-])ccc2o1` [IIIg, 5-iodo-6-nitro-benzopyrone], the IC50 in the data set with MDA-MB-231 (Exp1, read-out: IC50) came to 24 µM; in the data set on MDA-MB-231 (Exp2, read-out: IC50), 24.3 µM; in the data set on MDA-MB-231 (setting [1]) it was 24.2 µM; with NIH: OVCAR-3 (Exp1, read-out: IC50), 30.4 µM; in the data set on NIH: OVCAR-3 (Exp2, read-out: IC50), 29.6 µM; with NIH: OVCAR-3 (setting [1]) it was 30 µM. Besides, the IC50 in the data set with PC-3 (Exp1, read-out: IC50) was determined as 22 µM; in the data set on PC-3 (Exp2, read-out: IC50), 25.3 µM; in the data set on PC-3 (setting [1]), 23.7 µM. Also, the figures for the “Mean Maximum % Response” value with MDA-MB-231 (Max Concentration 100 μM), in the data set on NIH: OVCAR-3 (Max Concentration 100 μM) and in the data set with PC-3 (Max Concentration 100 μM) were 99%, 98% and 100%, respectively. Also, the Selective cytotoxicity entry in the data set with malignant cancer cells is reported as “selective cytotoxicity upon malignant cancer cells but not upon nonmalignant cells”. The “Synergy with oxaliplatin on proliferation” value in the data set with COLO357FG and MiaPaCa-2 was “synergizes with oxaliplatin”.
